Data as given in the supplement of paper PMC10307832.

Tests used:
Assay in all cases: relative viability (nuclei count vs DMSO), 5 days (fraction); higher = more cells survive
Kobe2602 = compound: C1=CC(=CC=C1NC(=S)NNC2=C(C=C(C=C2[N+](=O)[O-])C(F)(F)F)[N+](=O)[O-])F [Kobe2602]
Outline: (§1)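 Lung cancer cell lines in 1536-well plates were kept overnight at 37 °C, then pinned with five library-drug doses (not always all listed) spaced by √10 on vehicle-anchored plates. After 5 days without medium change, cells were fixed, permeabilised and Hoechst-stained in one step, imaged at 4×, and nuclei were counted with MetaXpress. Viability is treated-well nuclei divided by vehicle-well nuclei, taken as the median over plates. Plates passed only with control CV below 25% and at least one doubling.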

Zosuquidar = compound: O[C@@H](COc1cccc2ncccc12)CN1CCN([C@@H]2c3ccccc3[C@@H]3[C@H](c4ccccc42)C3(F)F)CC1 [Zosuquidar]
Outline: as §1

Cabozantinib = compound: COc1cc2nccc(Oc3ccc(NC(=O)C4(C(=O)Nc5ccc(F)cc5)CC4)cc3)c2cc1OC [Cabozantinib]
Outline: as §1

Kobe2602 + Alpelisib = compound: C1=CC(=CC=C1NC(=S)NNC2=C(C=C(C=C2[N+](=O)[O-])C(F)(F)F)[N+](=O)[O-])F [Kobe2602] + Cc1nc(NC(=O)N2CCC[C@H]2C(N)=O)sc1-c1ccnc(C(C)(C)C(F)(F)F)c1 [Alpelisib] (partner 2 µM)
Outline: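 Cells from lung cancer lines were seeded into 1536-well plates and, one day later, dosed by pin tool. Treatments were either a single drug or a fixed dose of an anchor drug with five library-drug doses (not always all listed) in √10 steps. After 5 days, nuclei were stained in a one-step fixation (final 0.05% Triton X-100, 1% formaldehyde, 1 ug/ml Hoechst) and counted on 4× images, and relative viability is the treated-to-vehicle nuclei ratio, as the median of duplicate plates.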

| Cell Line | relative viability (Kobe2602; 0.2 µM) | relative viability (Kobe2602; 0.6325 µM) | relative viability (Kobe2602; 2 µM) | relative viability (Kobe2602; 6.325 µM) | relative viability (Kobe2602; 20 µM) | relative viability (Zosuquidar; 0.01 µM) | relative viability (Zosuquidar; 0.03162 µM) | relative viability (Zosuquidar; 0.1 µM) | relative viability (Zosuquidar; 0.3162 µM) | relative viability (Zosuquidar; 1 µM) | relative viability (Cabozantinib; 0.02 µM) | relative viability (Cabozantinib; 0.06325 µM) | relative viability (Cabozantinib; 0.6325 µM) | relative viability (Cabozantinib; 2 µM) | relative viability (Kobe2602 + Alpelisib; first compound 0.2 µM) | relative viability (Kobe2602 + Alpelisib; first compound 0.6325 µM) | relative viability (Kobe2602 + Alpelisib; first compound 2 µM) | relative viability (Kobe2602 + Alpelisib; first compound 6.325 µM) | relative viability (Kobe2602 + Alpelisib; first compound 20 µM) | relative viability (Cabozantinib; 0.2 µM) |
| --- | --- | --- | --- | --- | --- | --- | --- | --- | --- | --- | --- | --- | --- | --- | --- | --- | --- | --- | --- | --- |
| H3255 | 0.959 | 1.03 | 0.909 | 0.91 | 0.915 | 0.959 | 0.952 | 0.8 | 1.07 | 0.931 | 0.948 | 1.04 | 0.994 | 1.07 | 0.655 | 0.679 | 0.662 | 0.63 | 0.741 | – |
| NCI-H2347 | 1.04 | 1.02 | 1.01 | 1.06 | 1.07 | 1 | 1.05 | 0.854 | 1.11 | 0.991 | 1.15 | 1.14 | 0.886 | 0.961 | 0.972 | 1.01 | 0.969 | 1.08 | 1.09 | 1.06 |
| CAL-12T | 0.965 | 1.06 | 0.896 | 0.997 | 0.957 | 1.07 | 1.16 | 0.923 | 1.2 | 0.932 | 1.04 | 1.14 | 0.982 | 1.01 | 0.92 | 1.39 | 0.67 | 0.981 | 1.19 | 1.01 |
| A-427 | 1.03 | 1.12 | 0.962 | 1.04 | 1.06 | 1.02 | 1.01 | 0.801 | 1.14 | 0.96 | 0.996 | 1.01 | 0.972 | 0.98 | 1.11 | 1.12 | 1.06 | 1.05 | 1.1 | 1.02 |
| HARA | 0.978 | 1.13 | 0.944 | 1.01 | 1.03 | 0.98 | 0.852 | 0.944 | 1.01 | 0.941 | 0.916 | 1.16 | 1.04 | 1.05 | 0.934 | 0.943 | 0.797 | 0.752 | 0.791 | 0.714 |
| NCI-H2170 | 1.03 | 0.958 | 0.974 | 0.992 | 0.871 | 0.989 | 1 | 0.932 | 0.971 | 0.954 | 0.991 | 1 | 1.02 | 1.04 | 0.807 | 0.86 | 0.794 | 0.726 | 0.772 | 0.864 |
| NCI-H2023 | 0.941 | 1.02 | 0.984 | 0.924 | 0.663 | 0.949 | 1.03 | 0.894 | 1.1 | 1.05 | 0.93 | 0.998 | 0.78 | 0.593 | 0.561 | 0.58 | 0.588 | 0.516 | 0.498 | 0.803 |
| ABC-1 | 0.941 | 1.1 | 0.769 | 1.06 | 1.04 | 0.926 | 0.841 | 1.04 | 0.986 | 0.911 | 0.902 | 1.05 | 0.875 | 0.887 | 0.785 | 1.06 | 1.13 | 1.11 | 1.08 | 0.993 |
| IA-LM | 0.932 | 1.08 | 0.923 | 0.895 | 0.929 | 0.939 | 1.01 | 0.838 | 0.945 | 0.865 | 1.21 | 1.09 | 1.04 | 1.27 | – | 0.778 | 0.602 | 0.683 | 0.751 | 0.9 |
| NCI-H520 | 1.01 | 1.09 | 0.966 | 0.936 | 0.957 | 0.986 | 1.04 | – | 1.08 | 1.05 | 1.05 | 0.959 | 0.953 | 0.951 | 0.912 | 1.12 | 0.848 | 0.84 | 0.859 | 0.962 |
| NCI-H1915 | 0.998 | 1.08 | 0.987 | 0.985 | 1 | 0.986 | 1.04 | 0.926 | 1.04 | 1.01 | 0.994 | 1.03 | 0.996 | 0.994 | 1.1 | 1.09 | 1.02 | 1.06 | 1.05 | 1.02 |
| NCI-H1299 | 0.977 | 1.06 | 1.02 | 1.04 | 0.994 | 1.02 | 0.989 | 1.04 | 1.01 | 1 | 1.03 | 1.08 | 1.05 | 1.08 | 1.02 | 1.05 | 1.08 | 1.13 | 1.05 | 1.03 |
| HCC-827 | 1.07 | 1.13 | 1.06 | 1 | 1.02 | 0.973 | 0.977 | 0.981 | 1.06 | 0.976 | 1.07 | 1.01 | 1.12 | 1.06 | 0.951 | 0.875 | 0.951 | 0.936 | 1.07 | – |
| EMC-BAC-2 | 1.02 | 1.26 | 0.947 | 1.12 | 0.999 | 1.01 | 0.955 | 0.89 | 1.12 | 0.73 | 0.776 | 1.1 | 1.04 | 1.01 | 0.745 | 0.827 | 0.733 | 0.817 | 0.738 | 1.15 |
| NCI-H650 | 0.913 | 1.11 | 0.885 | 0.986 | 0.905 | 1.02 | 0.836 | 0.807 | 1.12 | 0.851 | 0.745 | 0.966 | 0.86 | 0.899 | 1.06 | 1.28 | 1.12 | 1.14 | 1.08 | 1.12 |
| NCI-H1792 | 0.99 | 1.02 | 0.848 | 0.978 | 1.07 | 0.833 | 0.94 | 0.729 | 0.954 | 0.834 | – | 1.21 | 0.894 | 0.898 | 0.633 | 0.749 | 0.696 | 0.615 | 0.679 | 0.915 |
